Patent US20230346764A1, “Methods and Compositions for Treating Pruritus, Xerosis, and Associated Disease Using CCR3-Inhibitors” (Alkahest, Inc., priority 2017, published 2023)

Tests used:
[1] = Half-life of Compound 1; settings: read-out: t½ (converted)
[2] = tested on: SKH-1 Elite mice; assay: Oxazolone model of chronic skin inflammation: blood lymphocyte and white blood cell counts; format: in vivo, mouse; settings: day 29; PO; Compound 1 30 mg/kg b.i.d., Dexamethasone 1.5 mg/kg q.d.
Description: FIGS. 9A and 9B report the effects on blood lymphocyte (FIG. 9A) and white blood cell (WBC) (FIG. 9B) levels in mice treated as in FIG. 8. Lymphocyte level reduction was severe with dexamethasone treated mice and less so with Compound 1 treatment.
The Oxazolone model of chronic skin inflammation, was tested using Compound 1 and a known anti-inflammatory, dexamethasone. SKH-1 Elite mice were sensitized with 10 µL of a high dose of topical Oxazolone (5% wt/vol in 100% EtOH) on their back and a subsequent chronic inflammation was triggered using low doses of topical Oxazolone (0.1% wt/vol in 100% EtOH) every other day on both flanks. […]
Three hundred (300) µL of whole blood in 10 mM EDTA freshly collected at day 29 of the study and erythrocytes was analyzed for counting of lymphocytes (FIG. 9A) and white blood cells (WBC) (FIG. 9B) using an Advia - 120 hematology analyzer. Lymphocyte and white blood cell (WBC) populations were quantified for each treatment group (n=3, 6, 8, 8, 8, 6, respectively). All data are mean ± s.e.m. and statistical significance was assessed using one-way ANOVA followed by Tukey’s multiple comparisons test with the following adjusted p-value thresholds: <0.05 (*), < 0.01 (**), < 0.001 (***) and <0.0001 (****).

SMILES | half-life [1] [h] | blood lymphocyte level reduction [2]
Cc1cc(C(=O)N(C)C)cc(NC(=O)[C@H]2CCC(=O)N2C2CCN(Cc3ccc(Cl)c(C)c3)CC2)n1 [Compound 1] | 18 | –
C[C@@H]1C[C@H]2[C@@H]3CCC4=CC(=O)C=C[C@]4(C)[C@@]3(F)[C@@H](O)C[C@]2(C)[C@@]1(O)C(=O)CO [Dexamethasone] | – | severe
